From paper PMC10950554 (Methods in enzymology, 2023)

Biological target: ERK2 (Rattus norvegicus, UniProt P63086)
Assay: competitive fluorescence anisotropy displacement of FITC-X-Lig-D
Assay type: binding

ERK2, sequence (P63086 2-358): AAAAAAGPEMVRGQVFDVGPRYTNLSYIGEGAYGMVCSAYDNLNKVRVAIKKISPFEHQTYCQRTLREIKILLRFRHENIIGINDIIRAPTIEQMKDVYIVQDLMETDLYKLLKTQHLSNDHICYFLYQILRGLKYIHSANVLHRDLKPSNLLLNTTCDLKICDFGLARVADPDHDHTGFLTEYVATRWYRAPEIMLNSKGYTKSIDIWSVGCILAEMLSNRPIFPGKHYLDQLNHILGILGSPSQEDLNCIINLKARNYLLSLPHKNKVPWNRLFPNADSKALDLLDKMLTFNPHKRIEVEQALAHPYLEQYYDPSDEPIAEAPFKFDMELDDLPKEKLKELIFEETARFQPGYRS

Structure (SMILES): CC1(C)C2CCC(CN=C(N)CSS(=O)(=O)O)C1C2 (stereo not shown) [NSC 194308]
- Ki: 730 ± 260 nM
